We go through eight compounds from patent US12670969B2, “Network medicine framework for identifying drug repurposing opportunities” (Northeastern University, priority 2020, dated 2026).

One series concerns SARS-CoV-2. Conditions: positive control used at 5 μM; cited from earlier work.
Series [1] has as its system SARS-CoV-2 strain USA-WA1/2020. In kind it is cell-based. Conditions: VeroE6 cells, drugs from 8 μM down to 8 nM.
The next series relates to Huh7 cells. Conditions: in high concentration.
The next series deals with Caco-2. As to conditions: Caco-2 cells; cited from earlier work.

`CC(C)C[C@H](NC(=O)[C@H]1O[C@@H]1C(=O)O)C(=O)NCCCCN=C(N)N` [E-64]: the “inhibition of SARS-CoV-2 infection, previously reported” value in the series with SARS-CoV-2 is listed as “inhibit SARS-CoV-2 infection”.
With `CC(C)c1nc(CN(C)C(=O)N[C@H](C(=O)N[C@@H](Cc2ccccc2)C[C@H](O)[C@H](Cc2ccccc2)NC(=O)OCc2cncs2)C(C)C)cs1` [Ritonavir], the “outcome in VeroE6 screen, in words” value in series [1] is reported as “no effect”.
The same measure, in the same setting: the value for `CN(C)CCC=C1c2ccccc2CCc2ccccc21` [amitriptyline] was “S&W”.
On to `CC(=O)OC[C@H]1O[C@@H]([S-])[C@H](OC(C)=O)[C@@H](OC(C)=O)[C@@H]1OC(C)=O.CCP(CC)CC.[Au+]` [auranofin], for which the “cytotoxicity in Huh7 cells (reduced nuclei count)” value in the series on Huh7 cells is “tracing cytotoxicity”.
The same measure, in the same setting: then `CN1CCCC(n2nc(Cc3ccc(Cl)cc3)c3ccccc3c2=O)CC1` (stereo not drawn) [azelastine], with “tracing cytotoxicity”.
With `CCN(CC)CCCC(C)Nc1ccnc2cc(Cl)ccc12` (stereo not drawn) [chloroquine], the “outcome in VeroE6 screen, in words” value in series [1] is on record as “positive outcomes”.
Same read-out and setting: then `CCN(CCO)CCCC(C)Nc1ccnc2cc(Cl)ccc12` (stereo not drawn) [hydroxychloroquine], with “positive outcomes”.
`CCOC(=O)N1CCC(=C2c3ccc(Cl)cc3CCc3cccnc32)CC1` [loratadine]: the “drug-response classification (S, W, C, N) of effect on SARS-CoV-2 infection” value in series [1] (MOI about 0.2) is reported as “N”. In addition, the “viral activity in human cell line Caco-2” value in the series with Caco-2 is recorded as “inhibited viral activity”.
